Assay results from US20090143279A1 (priority 2007, published 2009).
Like-named read-outs stand apart in the source and are kept apart here.

Columns and labels:
[1] = tested on: mtOXPHOS transcripts; format: cell-based, mouse
[2] = tested on: OXPHOS gene expression; format: cell-based, mouse
[3] = tested on: mitochondrial membrane potential; format: cell-based, mouse
[4] = tested on: nuOXPHOS transcripts; format: cell-based, mouse
[5] = tested on: cellular dehydrogenase activity
[6] = tested on: reactive oxygen species; format: cell-based, mouse
[7] = tested on: cytochrome c; format: cell-based, mouse
[8] = tested on: C2C12 myotubes
[9] = composite Z-score vs mock-treated (DMSO) wells, Conc 20 μM
[10] = normalized composite Z-score vs mock-treated (DMSO) wells, Conc 20 μM
[11] = Conc 20 μM, normalized score vs mock-treated (DMSO) wells
[12] = composite Z-score vs DMSO, Conc 20 μM
[13] = 20 μM, composite Z-score vs DMSO

Sequence of cytochrome c (P62897 whole entry): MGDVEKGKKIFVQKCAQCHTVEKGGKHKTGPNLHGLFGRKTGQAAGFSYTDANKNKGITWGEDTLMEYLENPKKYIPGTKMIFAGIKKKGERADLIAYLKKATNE

C[C@@H]1C(=O)O[C@H]2[C@H]1CC[C@@]1(C)C=CC(=O)[C@@]3(C)O[C@@]213 [epoxy (4,5alpha)-4,5-dihydrosantonin]
mitoOX [1, 9]: −0.901
GE-HTS [2, 9]: −0.736
ΔΨm [3, 9]: 0.199
nucOX [4, 9]: −0.614
MTT [5, 9]: 0.041
ROS [6, 9]: −1.367
cyt c [7, 9]: 0.552
Viability [8, 9]: 0.133

OC[C@H]1O[C@@H](O[C@H]2[C@H](O)[C@@H](O)[C@H](O)O[C@@H]2CO)[C@H](O)[C@@H](O)[C@@H]1O [cellobiose (D[+])]
mitoOX [1, 10]: −0.466
GE-HTS [2, 10]: −0.127
ΔΨm [3, 10]: −0.571
nucOX [4, 10]: 0.051
MTT [5, 10]: 0.411
ROS [6, 10]: −0.298
cyt c [7, 10]: 0.380
Viability [8, 10]: 0.390

3beta-hydroxydeoxydesacetoxy-7-oxogedunin
mitoOX (composite Z-score) [1, 11]: −0.319
GE-HTS (composite Z-score) [2, 11]: −0.864
ΔΨm (composite Z-score) [3, 11]: −0.064
nucOX (composite Z-score) [4, 11]: −1.027
MTT (composite Z-score) [5, 11]: −0.615
ROS (composite Z-score) [6, 11]: 0.662
cyt c (composite Z-score) [7, 11]: 0.306
Viability (composite Z-score) [8, 11]: 0.688

COc1cc(-c2coc3cc(OCc4ccccc4)c(OC)c(O)c3c2=O)cc(O)c1OC [irigenin, 7-benzyl ether]
mitoOX [1, 9]: −1.100
GE-HTS [2, 9]: −1.362
ΔΨm [3, 9]: 0.948
nucOX [4, 9]: −1.386
MTT [5, 9]: −1.179
ROS [6, 9]: 1.548
cyt c [7, 9]: −0.617
Viability [8, 9]: −0.334

COC(=O)c1c(C)c2c(c(C)c1O)OC(=O)c1c(C)c(Cl)c(O)c(Cl)c1O2 [leoidin]
mitoOX [1, 12]: −0.638
GE-HTS [2, 12]: −0.611
ΔΨm [3, 12]: −1.352
nucOX [4, 12]: −0.523
MTT [5, 12]: 0.994
ROS [6, 12]: 1.481
cyt c [7, 12]: 0.341
Viability [8, 12]: 0.035

C=C[C@H]1CN2CC[C@H]1C[C@H]2[C@H](OC(=O)OCC)c1ccnc2ccc(OC)cc12 [quinine ethyl carbonate]
mitoOX [1, 13]: −1.297
GE-HTS [2, 13]: −1.190
ΔΨm [3, 13]: −0.661
nucOX [4, 13]: −1.003
MTT [5, 13]: −0.071
ROS [6, 13]: 0.401
cyt c [7, 13]: 0.822
Viability [8, 13]: −0.167

CC(=O)O[C@@H]1CC2C(C)(C)[C@H](O)CC[C@]2(C)C2CC[C@@]3(C)[C@H](c4ccoc4)OC(=O)C4OC43[C@@]21C (stereo partly drawn) [3alpha-hydroxydeoxodihydrogedunin]
mitoOX [1, 10]: −0.857
GE-HTS [2, 10]: −0.892
ΔΨm [3, 10]: −0.061
nucOX [4, 10]: −0.832
MTT [5, 10]: −1.072
ROS [6, 10]: 1.207
cyt c [7, 10]: 1.091
Viability [8, 10]: 0.065

CC1(C)CC[C@]2(C(=O)O)CC[C@]3(C)C(=CC[C@@H]4[C@@]5(C)CC[C@H](O)C(C)(C)[C@@H]5CC[C@]43C)[C@@H]2C1 [oleanoic acid]
mitoOX [1, 9]: −1.014
GE-HTS [2, 9]: −1.379
ΔΨm [3, 9]: −0.910
nucOX [4, 9]: −1.408
MTT [5, 9]: −0.720
ROS [6, 9]: −0.144
cyt c [7, 9]: 0.754
Viability [8, 9]: 0.492

CC(=O)C1=C(O)[C@@H]2[C@H]3c4c[nH]c5cccc(c45)C[C@H]3C(C)(C)N2C1=O [cyclopiazonic acid]
mitoOX [1, 12]: 0.172
GE-HTS [2, 12]: 0.186
ΔΨm [3, 12]: 0.863
nucOX [4, 12]: 0.163
MTT [5, 12]: −1.107
ROS [6, 12]: −0.293
cyt c [7, 12]: 0.033
Viability [8, 12]: −1.392

CCCCC(CC)CNC(=N)NC(=N)NCCCCCCNC(=N)NC(=N)NCC(CC)CCCC (stereo not shown) [alexidine]
mitoOX [1]: −2.011
mitoOX [1, 13]: −0.150
GE-HTS [2]: −1.696
GE-HTS [2, 13]: −0.288
ΔΨm [3]: −3.726
ΔΨm [3, 13]: −1.139
nucOX [4]: −1.387
nucOX [4, 13]: −0.289
MTT [5]: −5.432
MTT [5, 13]: −2.693
ROS [6]: −4.270
ROS [6, 13]: −0.298
cyt c [7]: −3.201
cyt c [7, 13]: −3.981
Viability [8]: −4.805
Viability [8, 13]: −2.974
